In patent publication US20240382509A1, “Cannabinoids C- and O-glycosides possessing anti-proliferative and anti-metastatic properties and process for preparation thereof” (Council of Scientific and Industrial Research, priority 2021, published 2024):
pIC50: −log10 of the molar value.

What was measured:
HCT-116 cells [1] = test: MTT cell viability assay, HCT-116; assay type: cell-based; conditions: Homo sapiens, HCT-116, 48 h, read-out: Cytotoxicity (IC50) HCT-116, MTT, 48 h; colorectal adenocarcinoma cells
Method: (§1) Cell viability assay: The cell viability was determined by the standard MTT assay method. Briefly, Panc-1, HCT-116, A549, PC3, MIAPaca-2, HT-29, MDA-MB-231, MCF7 cells, and fR2cells were seeded in 96 well tissue culture plates (Nunc) at a density of 4×10^3 cells per well and treated with varying concentrations of the test compounds in triplicates. DMSO was taken as a vehicle, and its final concentration was maintained at 0.2% in the culture medium. Doxorubicin was employed as a positive control. After 44 h of incubation, MTT dye solution was added into the medium, and cells were incubated for another 4 h at 37° C. in 5% CO2. The amount of colored formazan derivatives formed was measured by taking optical density (OD) using a microplate reader (TECAN, Infinite M200 Pro) at 570 nm, and the percentage of cell viability was calculated. The IC50 values were calculated using GraphPad Prism software (Version 5.0).

MCF-7 cells = test: MTT cell viability assay, MCF-7; assay type: cell-based; conditions: Homo sapiens, MCF7, 48 h, read-out: Cytotoxicity (IC50) MCF-7, MTT, 48 h; breast cancer cell of epithelial origin
Method: as §1

[2] = MTT cell viability assay, fR2 normal epithelial cells; assay type: cell-based, human; conditions: human, fR2 normal epithelial cells; MTT, 48 h; normal epithelial cell line; read-out: Cytotoxicity (IC50) fR2
Method: as §1

fR2 cells = test: as above; assay type: cell-based, human; conditions: in vitro
Method: as §1

MDA-MB-231 cells = test: MTT cell viability assay, MDA-MB-231; assay type: cell-based; conditions: Homo sapiens, aggressive breast cancer cell line of mesenchymal origin
Method: as §1
Now to study its anti-migratory and anti-metastatic role in another highly metastatic cancer cells of breast origin (MDA-MB 231) the IC50 value was determined by performing MTT assay (FIG. 6a).

[3] = tested on: Snail-1, Twist-1, Vimentin and E-cadherin in MIAPaCa-2 cells; test: Western blot of EMT markers; assay type: cell-based, human; conditions: 36 h, immunoblot
Method: Western Blot analysis. Briefly, MIAPaCa-2 cells were seeded in a 60 mm petri dish and maintained up to 70% confluency; afterward, the cells were treated with compound 2a (0.5, 1.5, 3 & 5 μM) for 36 h. After treatment, the cells were harvested washed thrice with ice-cold PBS and were subjected to protein lysis with lysis buffer (HEPES 1 mM/L, KCl 60 mM/L, NP-40 0.3%, EDTA 1 mM/L, DTT 1 mM/L, sodium orthovanadate 1 mM/L, PMSF 0.1 mM/L and cocktail protease inhibitor). The lysis product was centrifuged at 12000 rpm for 15 min at 4° C. to remove the cellular debris, and the supernatants were collected. Total protein was estimated with the help of the Bradford method. An equal amount of protein was subjected to SDS-PAGE, and consequently, after the protein was separated on SDS-PAGE based on their molecular weight, they were transferred onto the PVDF membrane. The membrane was blocked with 5% BSA and incubated in primary antibody prepared in 5% BSA (dilution ranging from 1:1000-1:2000) for 2-3 h. […] After washing with TBST, the protein expression was quantified by adding a chemiluminescent substrate on the membrane, and the signal obtained was captured in Biomax light x-ray films.
Now this particular derivative was further analysed for its ability to inhibit the molecular signatures of EMT. […]

MIAPaCa-2 cells = test: Matrigel invasion assay, MIAPaCa-2; assay type: cell-based, human; conditions: MIAPaCa-2, from 0.5 μM (0.5-5 μM), 36 h
Method: Matrigel invasion assay: MIAPaCa-2 and MDA-MB-231 cells (1×10^6) were seeded onto matrigel coated inserts and treated with compound 2a (0.5, 1.5, 3 & 5 μM) for 36 h in 5% CO2 incubator at 37° C. The upper chamber is filled with serum-free media, and the lower half consists of 10% FBS supplemented media, thus creating a gradient of chemoattractant that facilitates the migration of cells. Upon termination, the inserts were washed with PBS, and the non-migratory cells were removed from the upper chamber by using a cotton plug. Further, the cells were fixed with methanol and stained later with 0.2% crystal violet. After drying, the inserts were observed under an inverted microscope at 20× magnification, and images were taken.
Now this particular derivative was further analysed for its ability to inhibit the molecular signatures of EMT. To this end, MIAPaCa-2 cells were treated with 0.5 μM, 1.5 μM, 3 μM and 5 μM of compound 2a for 36 h and were subjected to immunoblotting to study the expression of Snail-1, Twist-1, Vimentin and E-cadherin. […] To analyse more deeply the ability of this compound to affect migration/metastasis, MIAPaCa-2 cells were seeded onto Matrigel coated inserts and were treated with 0.5 μM, 1.5 μM, 3 μM and 5 μM of compound 2a. […] Formation of invadopodia and filopodia (migratory structures) constitutes the fundamental property of cells undergoing migration. […]

HCT-116 cells [4] = test: Chromosome isolation and staining (chromosomal stability); assay type: cell-based; conditions: HCT-116, 2a in combination with 5FU, compared to vehicle/750 nM 5FU/3 μM 2a
From the text: The effect of the compound 2a in combination with DNA damaging drug 5-Fluorouracil in colon adenocarcinoma cells was studied. […] Consequently, the major repair factor RAD-51 got diminished as compared to 5FU alone treated lane. The immunoblot results also depicted the downmodulation of cellular survival factor BCL-2 and subsequent upregulation of proapoptotic protein Bax (FIG. 8a). […] Moreover, the effect of the combinatorial treatment on chromosomal stability in HCT-116 cells by chromosome isolation and staining was studied.

SMILES: CCCCCc1cc(O[C@@H]2OC(CO)[C@@H](O)C(O)C2O)c2c(c1)OC(C)(C)[C@@H]1CCC(C)=C[C@@H]21 (stereo partly drawn) [Compound 2a, Δ^9-tetrahydrocannabinol-1-O-β-D-glucopyranoside]
- pIC50 (HCT-116 cells [1]): 5.68
- pIC50 (MCF-7 cells): 4.81
- IC50 at 48 h [2]: > 100 µM
- toxicity towards normal human breast epithelial cells (fR2 cells): non-toxic
- pIC50 (MDA-MB-231 cells): 5.85
- expression of Snail-1, Twist-1 and Vimentin ([3]; MIAPaCa-2, 0.5, 1.5, 3 and 5 μM): significant down modulation
- expression of E-cadherin ([3]; MIAPaCa-2, from 1.5 to 5 μM): upregulated
- cellular invasion, Matrigel (MIAPaCa-2 cells): inhibition of cellular invasion
- chromosomal aberrations (HCT-116 cells [4]): significantly increases chromosomal abbreations
